Test results as given in US20200261543A1, “COMBINATION THERAPY FOR TREATMENT OF BONE DISORDERS” (University of Copenhagen, priority 2017, published 2020).

Assays:
[1] = in vivo; cited from earlier work
[2] = test system: serum C-terminal cross-linking telopeptide of type I collagen (CTX); assay: Serum CTX (bone resorption) after s.c. GLP-1, Example 5; format: in vivo, human; conditions: GLP-1 1.5 nmol/kg s.c.
Procedure: Eight healthy young people were enrolled (five male, three female). […] Participants arrived in the morning after an overnight fast. Blood samples were collected before (−15 and 0 min) and after injection (15, 30, 45, 60, 90 and 120 min). After last participant's last visit, bone resorption was determined by measurements of serum C-terminal cross-linking telopeptide of type I collagen (CTX; IDS Immunodiagnostic Systems GmbH, Frankfurt am Main, Germany).

[3] = test system: serum N-terminal propeptide of type 1 collagen (P1NP); assay: Serum P1NP (bone formation) after s.c. injection, Example 3; format: in vivo, human; conditions: for time of maximum effect on bone formation (P1NP): GIP 200 μg or GLP-2 800 μg s.c.
Procedure: (§1) Eight healthy young men were enrolled. The study included three study days in randomised order (with a minimum of 1 week washout between study days) where human GIP (200 μg), human GLP-2 (800 μg), or placebo was injected subcutaneously. Participants arrived in the morning (fasted overnight) and received the injection around 8.30 a.m. Blood samples were collected before (−25 and −10 min) and every 30 minutes after injection (30, 60, 90, 120, 180 and 240 min). After last participant's last visit, bone resorption was determined by measurements of serum C-terminal cross-linking telopeptide of type I collagen (CTX; IDS Immunodiagnostic Systems GmbH, Frankfurt am Main, Germany)
(§2) Eight healthy young men were enrolled, and the study was conducted as outlined in Example 1. After last participant's last visit, bone resorption was determined by measurements of CTX (IDS Immunodiagnostic Systems GmbH, Frankfurt am Main, Germany) and bone formation was determined by measurements of serum N-terminal propeptide of type 1 collagen (P1NP; IDS Immunodiagnostic Systems GmbH, Frankfurt am Main, Germany). In addition, serum concentration of parathyroid hormone (PTH; IDS Immunodiagnostic Systems GmbH, Frankfurt am Main, Germany) was measured.

[4] = test system: parathyroid hormone (PTH); assay: Serum PTH after s.c. injection, Example 3; format: in vivo, human; conditions: for time of maximum effect on PTH: GIP 200 μg or GLP-2 800 μg s.c.; for PTH level at maximum effect: 15 min after injection
Procedure: Eight healthy young men were enrolled. The study included three study days in randomised order (with a minimum of 1 week washout between study days) where human GIP (200 μg), human GLP-2 (800 μg), or placebo was injected subcutaneously. Participants arrived in the morning (fasted overnight) and received the injection around 8.30 a.m. […] After last participant's last visit, bone resorption was determined by measurements of serum C-terminal cross-linking telopeptide of type I collagen (CTX; IDS Immunodiagnostic Systems GmbH, Frankfurt am Main, Germany)
as §2

CTX = CTX (bone resorption) after s.c. injection alone or in combination, Example 2/4 study; format: in vivo, human; conditions: Example 4; for time of maximum effect on bone resorption (CTX): GIP 100 μg, GLP-2 400 μg or both s.c.
Procedure: (§3) Ten healthy young men are enrolled and the study includes four study days in randomised order (with a minimum of 1 week washout between study days) where human GIP (100 μg), human GLP-2 (400 μg), GIP+GLP-2 (100 μg+400 μg), or placebo are injected subcutaneously. The participants arrive in the morning (fasted overnight) and receive the injection around 8.30 a.m. Blood samples are collected before (−25 and −10) and every 30 minutes after injection (30, 60, 90, 120, 180 and 240 min) injection. After last participant's last visit, samples are analysed for concentrations of bone resorption markers (CTX).
as §2, with “Ten” for “Eight”, “are enrolled” for “were enrolled,”, “2.” for “1.”, “measured. The doses of GIP and GLP-2 were selected as discussed in example 2.” for “measured.”

[5] = test system: parathyroid hormone (PTH); assay: Serum PTH after s.c. injection alone or in combination, Example 4; format: in vivo, human; conditions: for time of maximum effect on PTH: GIP 100 μg, GLP-2 400 μg or both s.c.
Procedure: Ten healthy young men are enrolled and the study includes four study days in randomised order (with a minimum of 1 week washout between study days) where human GIP (100 μg), human GLP-2 (400 μg), GIP+GLP-2 (100 μg+400 μg), or placebo are injected subcutaneously. The participants arrive in the morning (fasted overnight) and receive the injection around 8.30 a.m. […] After last participant's last visit, samples are analysed for concentrations of bone resorption markers (CTX).
as §2, with “Ten” for “Eight”, “are enrolled” for “were enrolled,”, “2.” for “1.”, “measured. The doses of GIP and GLP-2 were selected as discussed in example 2.” for “measured.”

[6] = test system: serum C-terminal cross-linking telopeptide of type I collagen (CTX); assay: Serum CTX (bone resorption) after s.c. injection in healthy young men, Example 1/3 study; format: in vivo, human; conditions: for reduction in bone resorption (CTX): 200 μg GIP and 800 μg GLP-2, Example 1 as summarised in Example 2; for time of maximum effect on bone resorption (CTX): GIP 200 μg or GLP-2 800 μg s.c.
Procedure: as §1, §2

[7] = test system: serum N-terminal propeptide of type 1 collagen (P1NP); assay: Serum P1NP (bone formation) after s.c. injection alone or in combination, Example 4; format: in vivo, human; conditions: for time of maximum effect on bone formation (P1NP): GIP 100 μg or GLP-2 400 μg s.c.
Procedure: as §3
as §2, with “Ten” for “Eight”, “are enrolled” for “were enrolled,”, “2.” for “1.”, “measured. The doses of GIP and GLP-2 were selected as discussed in example 2.” for “measured.”

[8] = test system: serum C-terminal cross-linking telopeptide of type I collagen (CTX); assay: Nocturnal CTX (bone resorption) in postmenopausal women, Example 6; format: in vivo, human
Procedure: Ten healthy postmenopausal women are enrolled and the study includes four study days in randomised order (with a minimum of 1 week washout between study days) where human GIP (hGIP 100 μg), human GLP-2 ([…]), hGIP+hGLP-2 (100 μg+400 μg), or placebo, are injected subcutaneously. The participants arrive in the evening around 9 p.m. (fasted from ˜7 p.m.) and receive the injections at 10 p.m. Blood samples are collected before (−10 and −5 min) and after injection (7, 15, 30, 45, 60, 90, 120, 180 and 240 min). Bone resorption was determined by measurements of serum C-terminal cross-linking telopeptide of type I collagen (CTX; IDS Immunodiagnostic Systems GmbH, Frankfurt am Main, Germany). The doses of GIP and GLP-2 were selected as discussed in example 2.

GLP-1: human glucagon-like peptide-1; which form (SEQ ID NO: 7, 8 or 9) was injected is not stated
fasting plasma levels [1]: 0 to 15 pmol/L
time of maximum effect on bone resorption (CTX) [2]: 120 min
bone resorption (CTX) at maximum effect ([2]; 120 min after injection, healthy young people): 74.4±3.7 % of base line

HADGSFSDEMNTILDNLAARDFINWLIQTKITD [GLP-2]
time of maximum effect on bone formation (P1NP) [3]: 45 min
bone formation (P1NP) at maximum effect (reduction) ([3]; GLP-2 800 μg s.c., 45 min after injection): 88.1±8.5 % of base line
time of maximum effect on PTH [4]: 15 min
PTH level at maximum effect ([4]; GLP-2 800 μg s.c.): 71.9±13.9 % of basal levels
time of maximum effect on bone resorption (CTX) (CTX): 210 min
bone resorption (CTX) at maximum effect (CTX; GLP-2 400 μg s.c. alone, 210 min after injection): 58.2±16.0 % of basal
time of maximum effect on PTH [5]: 45 min
PTH level at maximum effect ([5]; GLP-2 400 μg s.c., 45 min after injection): 65.7±16.8 % of basal levels
reduction in bone resorption (CTX) [6]: ~50%
time of maximum effect on bone resorption (CTX) ([6]; Example 1): 180 min
time of maximum effect on bone resorption (CTX) ([6]; Example 3): 180 min
bone resorption (CTX) at maximum effect ([6]; GLP-2 800 μg s.c., 180 min after administration, Example 3 (completed study)): 60.5±14.1 % of base line
bone resorption (CTX) at maximum effect ([6]; GLP-2 800 μg s.c., 180 min after administration, healthy young men, Example 1): 63.4±3.4 % of base line
time of maximum effect on bone formation (P1NP) [7]: 60 min
bone formation (P1NP) at maximum effect (reduction) ([7]; GLP-2 400 μg s.c., 60 min after injection): 88.2±9.4 % of base line
nocturnal bone resorption (CTX) compared to placebo ([8]; GLP-2 400 μg s.c. at 10 p.m.): reduced bone resorption during the entire study period

YAEGTFISDYSIAMDKIHQQDFVNWLLAQKGKKNDWKHNITQ [GIP]
time of maximum effect on bone formation (P1NP) [3]: 30 min
bone formation (P1NP) at maximum effect (increase) ([3]; GIP 200 μg s.c., 30 min after injection): 115.1±6.2 % of base line
time of maximum effect on PTH [4]: 15 min
PTH level at maximum effect ([4]; GIP 200 μg s.c.): 71.2±11.4 % of basal levels
bone resorption (CTX) at maximum effect (CTX; GIP 100 μg s.c. alone, 90 min after administration): 57.6±17.9 % of basal
time of maximum effect on bone resorption (CTX) (CTX): 90 min
PTH level at maximum effect ([5]; GIP 100 μg s.c., 15 min after injection): 73.0±19.2 % of basal levels
time of maximum effect on PTH [5]: 15 min
reduction in bone resorption (CTX) [6]: ~50%
time of maximum effect on bone resorption (CTX) ([6]; Example 1): 90 min
time of maximum effect on bone resorption (CTX) ([6]; Example 3): 90 min
bone resorption (CTX) at maximum effect ([6]; GIP 200 μg s.c., 90 min after injection, Example 3 (completed study)): 55.3±17.9 % of base line
bone resorption (CTX) at maximum effect ([6]; GIP 200 μg s.c., 90 min after injection, healthy young men, Example 1): 56.2±11.2 % of base line
time of maximum effect on bone formation (P1NP) [7]: 30 min
bone formation (P1NP) at maximum effect (increase) ([7]; GIP 100 μg s.c., 30 min after injection): 111.1±9.0 % of base line
nocturnal bone resorption (CTX) compared to placebo ([8]; GIP 100 μg s.c. at 10 p.m.): reduced bone resorption was seen from 30 min to 120 min
